According to ChEMBL document CHEMBL3045808, “Insect antifeedants from Munronia henryi: structure of munroniamide” (2003):

Assays:
[1] = system: Pieris brassicae; assay: Antifeedant activity against fasted third-instar larvae of Pieris brassicae infested in compound-treated Brassica oleracea leaves at 1000 ppm after 48 hr by leaf-disc method relative to control; assay type: functional
[2] = system: Pieris brassicae; assay: Insecticidal activity against fasted third-instar larvae of Pieris brassicae infested in compound-treated Brassica oleracea leaves assessed as mortality at 1000 ppm after 6 days relative to control; assay type: functional; details: 144 h

Structure (SMILES) | Activity [1] | mortality at 1000 ppm [2]
CCCCCCCCC/C=C/CCC[C@@H](O)[C@@H](O)[C@H](CO)NC(=O)[C@H](O)CCCCCCCCCCCCCCCCCCCCCC | 3% | 0%
C=C1[C@@H]2[C@@H](OC(=O)C=C[C@@]2(C)[C@H]2CC(=O)OC2(C)C)[C@H](OC(C)=O)[C@@]2(C)[C@H](C3=CCN(C(=O)CCNN)C3=O)C[C@H]3O[C@]132 [MUNRONIAMIDE] | 27.6% | 10%
C/C=C(\C)C(=O)O[C@H]1C[C@@H](OC(C)=O)[C@@]2(C(=O)OC)CO[C@H]3[C@@H](O)[C@@](C)([C@]45O[C@@]4(C)[C@@H]4C[C@H]5O[C@@H]5OC=C[C@@]54O)[C@H]4[C@]1(CO[C@]4(O)C(=O)OC)[C@@H]32 [AZADIRACHTIN A] | 99.5% | 100%
CCCCCCCCCCCCC/C=C/[C@@H](O)[C@H](CO)NC(=O)[C@H](O)CCCCCCCCCCCCCCCCCCCCCC | 0% | 0%
CCCCCCCCC/C=C\CCC[C@@H](O)[C@@H](O)[C@H](CO[C@@H]1O[C@H](CO)[C@@H](O)[C@H](O)[C@H]1O)NC(=O)[C@H](O)CCCCCCCCCCCCCCCCCCCCCC | 62% | 50%
